{"source": "patent US20090175872A1", "about": "“Treatment of Conditions Involving Demyelination” (BIOGEN Idec MA Inc., priority 2005, published 2009)", "molecules": {"B1": {"name": "AP-Sp35: human placental alkaline phosphatase with six histidine tag fused to human Sp35 residues 34-532 (protein, listed as Homo sapiens)", "chain": "TGCPPRCECSAQDRAVLCHRKRFVAVPEGIPTETRLLDLGKNRIKTLNQDEFASFPHLEELELNENIVSAVEPGAFNNLFNLRTLGLRSNRLKLIPLGVFTGLSNLTKLDISENKIVILLDYMFQDLYNLKSLEVGDNDLVYISHRAFSGLNSLEQLTLEKCNLTSIPTEALSHLHGLIVLRLRHLNINAIRDYSFKRLYRLKVLEISHWPYLDTMTPNCLYGLNLTSLSITHCNLTAVPYLAVRHLVYLRFLNLSYNPISTIEGSMLHELLRLQEIQLVGGQLAVVEPYAFRGLNYLRVLNVSGNQLTTLEESVFHSVGNLETLILDSNPLACDCRLLWVFRRRWRLNFNRQQPTCATPEFVQGKEFKDFPDVLLPNYFTCRRARIRDRKAQQVFVDEGHTVQFVCRADGDPPPAILWLSPRKHLVSAKSNGRLTVFPDGTLEVRYAQVQDNGTYLCIAANAGGNDSMPAHLHVRSYSPDWPHQPNKTFAFISNQPGE", "modifications": "alkaline phosphatase fusion partner"}, "B2": {"name": "AP-Sp35-Ig: AP-tagged Ig plus stalk domain of Sp35, amino acids 417-532 of SEQ ID NO:2 (protein, listed as Homo sapiens)", "chain": "RARIRDRKAQQVFVDEGHTVQFVCRADGDPPPAILWLSPRKHLVSAKSNGRLTVFPDGTLEVRYAQVQDNGTYLCIAANAGGNDSMPAHLHVRSYSPDWPHQPNKTFAFISNQPGE", "modifications": "AP tag fused"}, "B3": {"name": "AP-Sp35-LRR: AP-tagged LRR domain of Sp35, amino acids 34-417 of SEQ ID NO:2 (protein, listed as Homo sapiens)", "chain": "TGCPPRCECSAQDRAVLCHRKRFVAVPEGIPTETRLLDLGKNRIKTLNQDEFASFPHLEELELNENIVSAVEPGAFNNLFNLRTLGLRSNRLKLIPLGVFTGLSNLTKLDISENKIVILLDYMFQDLYNLKSLEVGDNDLVYISHRAFSGLNSLEQLTLEKCNLTSIPTEALSHLHGLIVLRLRHLNINAIRDYSFKRLYRLKVLEISHWPYLDTMTPNCLYGLNLTSLSITHCNLTAVPYLAVRHLVYLRFLNLSYNPISTIEGSMLHELLRLQEIQLVGGQLAVVEPYAFRGLNYLRVLNVSGNQLTTLEESVFHSVGNLETLILDSNPLACDCRLLWVFRRRWRLNFNRQQPTCATPEFVQGKEFKDFPDVLLPNYFTCRR", "modifications": "AP tag fused"}}, "note": "No end group written: not given here. *: point of attachment. Biotin = O=C1N[C@H]2[C@H](CS[C@H]2CCCCC(=O)*)N1"}
{"biological_target": "T1, human ErbB2 (Homo sapiens, UniProt P04626)", "T1 construct": "expressed in transfected cells; host or cells: CHO cells, transient transfection with Fugene 6, assayed after 48 hours", "experiment": "AP-Sp35 binding to ErbB2-transfected CHO cells", "details": "FIG. 17A; read-out: EC50 of binding to CHO cells expressing ErbB2", "description": "(§1) ErbB2 is a member of the type I family of transmembrane receptor tyrosine kinases. The family comprises four members: epidermal growth factor receptor (EGFR or ErbB1), ErB2 (HER2 or neu), ErbB3 and ErbB4. Oligodendrocyte differentiation is positively regulated by the ErbB2 receptor tyrosine kinase. To examine the potential interaction between Sp35 and ErB2, an N-terminal AP-tagged human Sp35 protein was tested for binding to human ErbB2-transfected Chinese hamster ovary (CHO) cells.\n(§2) 90% confluent CHO cells were transfected with various combinations of human ErbB2 vector expression plasmid using Fugene 6 reagents (Roche). After 48 hours, the transfected cells were washed with HBH (Hank's balanced salt solution, 1 mg/ml BSA, 20 mM HEPES (pH 7.0)) and incubated for 1.5 hours at 23° C. or […] with 4 μg/ml of AP-Sp35 (human placental alkaline phosphotase (AP) with an N-terminal six histidine tag, fused to the C-terminus of human Sp35 (residues 34-532), as described in Mi et al., Nat. Neurosci. 7:221-228 (2004)) or control AP-protein in HBH. Bound AP-Sp35 was detected directly or following detergent lysis of the cells by ELISA and enzymatic activity was quantified with 4-NPP as described in Mi et al. Nat. Neurosci. 7:221-228 (2004).\n(§3) In order to identify the Sp35 domain that binds ErbB2, soluble truncated forms of AP-Sp35 were tested for binding. Both the LRR domain of Sp35 (amino acids 34-417 of SEQ ID NO:2) (AP-Sp35-LRR) and the extracellular domain of Sp35 (amino acids 34-532 of SEQ ID NO:2) (AP-Sp35) bound to ErbB2 expressed in CHO cells. […] FIGS. 17B and 17C.", "units": {"EC50": "nM"}}
{"molecule": "B1", "EC50": 3}
{"biological_target": "T1, human ErbB2", "experiment": "AP-Sp35 binding to ErbB2-transfected CHO cells", "details": "FIGS. 17B and 17C", "description": "as §1, §2, §3"}
{"molecule": "B2", "binding to ErbB2 expressed in CHO cells": "no detectable binding"}
{"molecule": "B3", "binding to ErbB2 expressed in CHO cells": "bound"}
{"molecule": "B1", "binding to ErbB2 expressed in CHO cells": "bound"}
{"tested_on": "co-cultures of dorsal root ganglion (DRG) neurons and oligodendrocytes", "experiment": "Myelination in co-cultures of DRG neurons and oligodendrocytes", "assay_type": "cell-based, rat", "details": "4-week-old treated co-cultures, anti-MBP antibody", "description": "The role of Sp35 in myelination was examined in vitro by treating co-cultures of dorsal root ganglion (DRG) neurons and oligodendrocytes with Sp35-Fc and testing for myelination by immunohistochemistry and electron microscopy. For these studies, it was necessary to first generate primary cultures of DRG neurons and of oligodendrocytes.\nFemale Long Evans rat E14-E17 embryonic dorsal root ganglia were cultured as described by Plant et al., J. Neurosci. 22:6083-91 (2002). Dissected DRGs were plated on poly-L-lysine-coated cover slips (100 μg/ml) for 2 weeks in the presence of fluorodeoxyuridine for days 2-6 and days 8-11 in NLA medium containing 1×B27, 100 ng/ml NGF (Invitrogen).\nA2B5^+ oligodendrocytes were prepared as described in Example 1, and were harvested by trypsinization.\nFor coculture studies, A2B5^+ oligodendrocytes were added to DRG neuron drop cultures in the presence or absence of 10 μg/ml Sp35-Fc. The culture medium (Neurobasal medium supplemented with B27 and 100 ng/ml NGF) was changed, and fresh Sp35-Fc was added to the cells every 3 d. To identify changes in myelination, 2-week-old cultures were stained by immunohistochemical staining (“IHC”) for neurofilaments with anti-βIII-tubulin antibody to identify axons, or anti-MBP antibody to identify oligodendrocytes., and 4-week-old cultures were subjected to SDS-PAGE followed by western blot analyses to quantify the MBP. In selected examples, cells were fixed for electron microscopy studies by adding 2.5% gluteraldehyde directly onto the cover slips. Myelinated axons in the 2-week-old cultures were quantified by counting the number of myelinated internode bundles that were derived from single MBP^+ oligodendrocytes. Samples were analyzed in duplicate. Error bars denote individual determinations. P values in all studies were determined using a one-way analysis of variance. […]\nWe performed experiments to address the relative contributions to the myelination process of Sp35 in DRG neurons as compared to oligodendrocytes. We infected DRG neurons, oligodendrocytes and co-cultures (prepared as described in Example 5) with the FL-Sp35 and DN-Sp35 lentiviral vectors described in Example 1 and performed immunohistochemical straining for myelinated MBP^+ cells after two weeks. A 2-fold increase in MBP levels in co-cultures where both cells express DN-Sp35 and a 2-fold decrease in MBP levels in co-cultures where both cells express FL-Sp35 was observed (FIG. 10G)."}
{"molecule": "Ac-CLSPEKVC (also: cyclic, type not given here)", "expression of MBP (western blot)": "no increase in MBP"}
{"molecule": "Ac-CLSPRKHC (Ac-CLSPRKHC-NH2; also: cyclic, type not given here)", "expression of MBP (western blot)": "increased expression of MBP"}
{"molecule": "Biotin-GSGCKHSPLRC (cysteine pairing not given here)", "expression of MBP (western blot)": "no increase in MBP"}
{"molecule": "Biotin-GSGCLSPEKVC (cysteine pairing not given here)", "expression of MBP (western blot)": "no increase in MBP"}
{"molecule": "Biotin-GSGCLSPRKHC (cysteine pairing not given here)", "expression of MBP (western blot)": "increased expression of MBP"}
